# Entries after “also recorded” stand apart in the source; their conditions may differ.
# Columns and labels:
# [1] = test system: multidrug-resistant S. aureus; assay: Sensitization of antibiotic-resistant bacteria (compound plus breakpoint antibiotic concentration); type: cell-based, Staphylococcus aureus; conditions: for Effect on viability in combination with chloramphenicol: chloramphenicol 8 mg/L; for Effect on viability in combination with chloramphenicol / Effect on viability in combination with gentamicin: flavonoid 40 µM, 24 h; for Effect on viability in combination with gentamicin: gentamicin 1 mg/L; for Gentamicin-resistant phenotype of S. aureus (result in words): gentamicin breakpoint concentration, compound 40 µM
# Summary of the method: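 A multidrug-resistant clinical isolate of S. aureus from the General University Hospital in Prague was grown in Mueller–Hinton broth with flavonoid derivatives combined with a EUCAST breakpoint concentration of antibiotic. MIC was determined according to ISO 20776-1: 2020, and viability was read as absorbance at A590 nm after 24 h at 37 °C and 150 rpm.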
# [2] = test system: pooled male rat microsomal liver membranes; assay: Inhibition of lipid peroxidation induced by tert-butyl hydroperoxide; type: biochemical; conditions: male rat microsomes, read-out: ILP IC50
# Procedure: The antiradical activity was evaluated by the ability to scavenge ABTS and DPPH radicals. Reducing capacity was assessed by the ability to reduce the Folin–Ciocalteu reagent (FCR) and ferric ions (FRAP). The ability to inhibit lipid peroxidation of pooled male rat microsomal liver membranes induced by tert-butyl hydroperoxide was also evaluated and the results were expressed as IC50 values.
# [3] = DPPH radical scavenging; conditions: 1,1-diphenyl-2-picrylhydrazyl radical scavenging
# Summary of the method: (§1)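 ABTS and DPPH radical scavenging gauged antiradical activity. Reducing capacity was measured as reduction of Folin–Ciocalteu reagent and of ferric ions (FRAP).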
# [4] = test system: multidrug-resistant P. aeruginosa; assay: Sensitization of antibiotic-resistant bacteria (compound plus breakpoint antibiotic concentration); type: cell-based, Pseudomonas aeruginosa; conditions: for Effect on viability in combination with colistin: colistin 2 mg/L; for Effect on viability in combination with colistin / Effect on viability in combination with imipenem: flavonoid 40 µM, 24 h; for Effect on viability in combination with imipenem: imipenem 4 mg/L; on Effect on viability in combination with imipenem: key: -: no effect (100% viability) was observed up to the highest flavonolignan concentration tested (>40 µM); reversion of resistance: the compound reversed the resistant phenotype to a sensitive one
# Summary of the method: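 A multidrug-resistant clinical isolate of P. aeruginosa, obtained from the General University Hospital in Prague and resistant to colistin and imipenem among other drugs, was grown in Mueller–Hinton broth. Flavonoid derivatives at up to 40 µM were combined with EUCAST breakpoint antibiotic concentrations. MIC was determined per ISO 20776-1: 2020, with viability read as A590 nm after 24 h at 37 °C, 150 rpm.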
# [5] = test system: Vibrio campbellii BAA 1118 (AI-1); assay: Viability of the quorum-sensing reporter culture (resazurin assay), AI-1 strain; type: cell-based; conditions: BAA1118, V. campbellii BAA 1118, resazurin assay, read-out: IC50 (concentration that halved the viability)
# Summary of the method: (§2)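 Mutant V. campbellii strains responding only to AI-1 (BAA-1118) or AI-2 (BAA-1119), seeded at 5 × 10^5 CFU/mL in Autoinducer Bioassay medium (potassium phosphate pH 7.0); compounds at final 0.2–200 µM.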
# [6] = test system: Vibrio campbellii BAA 1119 (AI-2); assay: microbe, parasite or virus in culture; type: cell-based; conditions: for EC50: Vibrio campbellii, BAA1119, 16 h, read-out: EC50 (concentration that halved the communication); for SI (selectivity index): ratio IC50 (viability) / EC50 (communication), BAA 1119
# Summary of the method: as §2
# [7] = test system: human dermal fibroblasts (HDF); assay: Cytotoxicity (resazurin assay, 72 h); type: cell-based; conditions: Fibroblast
# Summary of the method: (§3)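 HDF and HOC/DOX cells in DMEM with 10% FBS were treated 24 h after seeding with 31.25–500 µM compound for 72 h at 37 °C. Viability was read by resazurin fluorescence (560/590 nm) after 2 h; IC50 came from nonlinear regression, and selectivity index = IC50(HDF)/IC50(HOC/DOX).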
# [8] = test system: doxorubicin-resistant human ovarian carcinoma (HOC/DOX); assay: Cytotoxicity (resazurin assay, 72 h); type: cell-based; conditions: for IC50: Homo sapiens, 72 h, resazurin assay; for SI (selectivity index): ratio IC50 for HDF / IC50 for HOC/DOX
# Summary of the method: as §3
# [9] = ABTS cation radical scavenging; conditions: vitamin C equivalent antioxidant capacity
# Summary of the method: as §1
SMILES,Effect on viability in combination with chloramphenicol [1],Effect on viability in combination with gentamicin [1],IC50 [2],IC50 [3],Effect on viability in combination with colistin [4],Effect on viability in combination with imipenem [4],IC50 [5],EC50 [6],SI (selectivity index) [6],IC50 [7],IC50 [8],SI (selectivity index) [8],ABTS [CEAC] [9],Colistin-resistant phenotype of P. aeruginosa (result in words) ([4]; colistin breakpoint concentration),Gentamicin-resistant phenotype of S. aureus (result in words) [1]
"O=c1c(O)c(-c2ccc(O)c(O)c2)oc2c(Br)c(O)cc(O)c12 [compound 9, 8-bromoquercetin]",-,-,38.3 ± 1.9 µM,2.44 µM,-,-,27.8 ± 0.5 µM,0.4 ± 0.02 µM,2.9 ± 0.3,132 µM,171 µM,0.77,2.92 ± 0.28 CEAC,,
"O=c1c(O)c(-c2ccc(O)c(O)c2)oc2c(Br)c(O)c(Br)c(O)c12 [compound 10, 6,8-dibromoquercetin]",-,-,28.6 ± 1.1 µM,3.59 µM,-,-,13.8 ± 0.5 µM,0.7 ± 0.02 µM,5.0 ± 0.3,55 ± 1.9 µM,54.2 ± 0.3 µM,1.02,2.63 ± 0.19 CEAC,,
"COc1cc([C@H]2Oc3cc([C@H]4Oc5cc(O)c(Br)c(O)c5C(=O)[C@@H]4O)ccc3O[C@@H]2CO)ccc1O [compound 11, 6-Bromosilybin A]",-,,449 µM,472 µM,-,-,51.7 ± 0.7 µM,9.4 ± 0.5 µM,5.5 ± 0.3,95.6 ± 3 µM,186 µM,0.51,0.60 ± 0.04 CEAC,,
"COc1cc([C@H]2Oc3cc([C@H]4Oc5c(Br)c(O)c(Br)c(O)c5C(=O)[C@@H]4O)ccc3O[C@@H]2CO)ccc1O [compound 12, 6,8-dibromosilybin A]",-,,710 µM,383 µM,-,-,23.5 ± 1 µM,13.2 ± 0.3 µM,6.1 ± 0.5,102 µM,304 µM,0.34,0.30 ± 0.04 CEAC,,
"COc1cc([C@@H]2Oc3cc([C@H]4Oc5cc(O)c(Br)c(O)c5C(=O)[C@@H]4O)ccc3O[C@H]2CO)ccc1O [compound 13, 6-Bromosilybin B]",-,,728 µM,354 µM,-,-,16.1 ± 0.1 µM,26.1 ± 1.3 µM,2.0 ± 0.1,76.4 ± 1.1 µM,162 µM,0.47,0.75 ± 0.02 CEAC,,
"COc1cc([C@@H]2Oc3cc([C@H]4Oc5c(Br)c(O)c(Br)c(O)c5C(=O)[C@@H]4O)ccc3O[C@H]2CO)ccc1O [compound 14, 6,8-dibromosilybin B]",-,,378 µM,256 µM,-,-,16.6 ± 0.8 µM,19.3 ± 0.5 µM,3.1 ± 0.3,128 µM,231 µM,0.55,0.35 ± 0.04 CEAC,,
"COc1cc(C2Oc3cc(-c4oc5c(Br)c(O)cc(O)c5c(=O)c4O)ccc3OC2CO)ccc1O (stereo not drawn) [compound 16, 8-bromo-2,3-dehydrosilybin AB]",-,-,49.2 ± 1.9 µM,13.4 µM,reversion of resistance,-,> 200 µM,6.9 ± 0.3 µM,12.7 ± 1.0,16.9 ± 0.6 µM,39.4 ± 3.4 µM,0.43,1.15 ± 0.03 CEAC,reversed the colistin-resistant phenotype in P. aeruginosa to a sensitive one,
"COc1cc([C@@H]2Oc3c(O)cc(-c4oc5c(Br)c(O)cc(O)c5c(=O)c4O)cc3[C@H]2CO)ccc1O [compound 18, 8-Bromo-2,3-dehydrosilychristin A]",-,-,60.1 ± 2.7 µM,11.1 ± 0.6 µM,-,-,80.1 ± 1.7 µM,10.5 ± 0.2 µM,2.2 ± 0.1,66.7 ± 5.6 µM,209 µM,0.32,1.41 CEAC,,
"COc1cc([C@H]2Oc3cc([C@H]4Oc5c(Br)c(O)c(Br)c(O)c5C(=O)[C@@H]4O)ccc3O[C@@H]2CO)cc(Br)c1O [compound 21, 6,8,21-tribromosilybin A]",-,reversion of resistance,213 µM,375 µM,-,-,> 200 µM,30.7 ± 1.6 µM,≥6.5 ± 0.3,75 ± 2.4 µM,201 µM,0.37,0.12 ± 0.02 CEAC,,reversed the resistant phenotype to a sensitive one; also recorded: revert the resistant phenotype into a sensitive one
"COc1cc([C@@H]2Oc3cc([C@H]4Oc5c(Br)c(O)c(Br)c(O)c5C(=O)[C@@H]4O)ccc3O[C@H]2CO)cc(Br)c1O [compound 22, 6,8,21-tribromosilybin B]",-,reversion of resistance,255 µM,238 µM,-,-,7.3 ± 0.1 µM,12 ± 0.5 µM,2.9 ± 0.3,85.8 ± 1.1 µM,183 µM,0.47,0.17 ± 0.01 CEAC,,reversed the resistant phenotype to a sensitive one; also recorded: revert the resistant phenotype into a sensitive one

# Reference: PMC9738062, “Selectively Halogenated Flavonolignans—Preparation and Antibacterial Activity” (International Journal of Molecular Sciences, 2022)
